Experimental data from patent US7223771B2, “Tricyclic imidazopyridines” (Altana Pharma AG, priority 2001, dated 2007).

Tested on: pentagastrin-stimulated acid secretion of the perfused rat stomach
Settings: anesthetized CD rat, dose 3.0 μmol/kg i.d. (intraduodenal)
From the text: Testing of the Secretion-Inhibiting Action on the Perfused Rat Stomach
The abdomen of anesthetized rats (CD rat, female, 200–250 g; 1.5 g/kg i.m. urethane) was opened after tracheotomy by a median upper abdominal incision and a PVC catheter was fixed transorally in the esophagus and another via the pylorus such that the ends of the tubes just projected into the gastric lumen. The catheter leading from the pylorus led outward into the right abdominal wall through a side opening.
After thorough rinsing (about 50–100 ml), warm (37° C.) physiological NaCl solution was continuously passed through the stomach (0.5 ml/min, pH 6.8–6.9; Braun-Unita I). The pH (pH meter 632, glass electrode EA 147; φ=5 mm, Metrohm) and, by titration with a freshly prepared 0.01N NaOH solution to pH 7 (Dosimat 665 Metrohm), the secreted HCl were determined in the effluent in each case collected at an interval of 15 minutes.
The gastric secretion was stimulated by continuous infusion of 1 μg/kg (=1.65 ml/h) of i.v. pentagastrin (left femoral vein) about 30 min after the end of the operation (i.e. after determination of 2 preliminary fractions). The substances to be tested were administered intraduodenally in a 2.5 ml/kg liquid volume 60 min after the start of the continuous pentagastrin infusion.
The body temperature of the animals was kept at a constant 37.8–38° C. by infrared irradiation and heat pads (automatic, stepless control by means of a rectal temperature sensor).

Row | SMILES | Inhibition of acid secretion
1 | CCN(CC)C(=O)c1cn2c(C)c(C)nc2c2c1CCC(c1ccccc1)O2 (stereo not drawn) [Example 1, 2,3-Dimethyl-9-phenyl-7H-8,9-dihydro-pyrano-[2,3-c]-N-(diethyl)imidazo[1,2-a]pyridine-6-carboxamide] | 100%
2 | CCOC(=O)c1cn2c(C)c(C)nc2c2c1CCC(c1ccccc1)O2 (stereo not drawn) [Example 2, Ethyl 2,3-dimethyl-9-phenyl-7H-8,9-dihydro-pyrano[2,3-c]-imidazo[1,2-a]pyridine-6-carboxylate] | 100%
3 | Cc1nc2c3c(c(C(=O)N(C)C)cn2c1C)CCC(c1ccccc1)O3 (stereo not drawn) [Example 3, 2,3-Dimethyl-9-phenyl-7H-8,9-dihydro-pyrano[2,3-c]-imidazo[1,2-a]pyridine-6-(N,N-dimethyl)carbamide] | 100%
